Measured values published in patent publication US9670208B2, “Serine/threonine kinase inhibitors” (Array BioPharma Inc., priority 2013, dated 2017).

What was measured:
[1] = biological target: human ERK-2 (Mitogen Activated Kinase 1) (Homo sapiens (Human), UniProt P28482); assay: ERK-2 Enzymatic Assay; type: biochemical; settings: ERK-2 enzyme, 25 μM ATP; single assay or mean of multiple assays; read-out: Biological Example 1 IC50
[2] = system: PMA-stimulated P90RSK(Ser380) phosphorylation in HepG2 cells; assay: Cellular P90RSK(Ser380) Phosphorylation Assay; type: cell-based; settings: Homo sapiens, 1.5 hours compound incubation, PMA 100 ng/mL, normalized to GAPDH, single assay or mean of multiple assays, read-out: Biological Example 2 IC50
Protocol: Inhibition of PMA-stimulated P90RSK(Ser380) phosphorylation was determined by the following in vitro cellular mechanistic assay, which comprises incubating cells with a compound for 1.5 hours and quantifying fluorescent pP90RSK(Ser380) signal on fixed cells and normalizing to GAPDH signal.
HepG2 cells were obtained from ATCC (Manassas, Va.) and grown in DMEM supplemented with 10% fetal bovine serum. Cells were plated in 96-well plates at 35,000 cells/well and allowed to attach overnight at 37° C./5% CO2. Diluted compounds were then added at a final concentration of 0.5% DMSO. After 1.5 hours compound incubation, cells were stimulated with the addition of phorbol 12-myristate 13-acetate (“PMA”) at a final concentration of 100 ng/mL; the PMA stimulation was a 30-minute incubation at 37° C./5% CO2. After the 30-minute PMA stimulation, cells were washed with phosphate buffered saline (“PBS”) and fixed in 3.7% formaldehyde in PBS at room temperature for 15-20 minutes. This was followed by another wash in PBS and then permeabilization in 100% MeOH at room temperature for 10-15 minutes. Following the permeabilization incubation, cells were washed in PBS/0.05% Tween-20, followed by a block in Odyssey blocking buffer (LI-COR Biosciences) for at least 1 hour. Antibodies to phosphorylated P90RSK(Ser380) (Cell Signaling #9335, rabbit monoclonal) and GAPDH (Fitzgerald 10R-G109a, mouse monoclonal) were added to the cells and incubated overnight at 4° C. pP90RSK(Ser380) antibody was used at a 1:250 dilution; GAPDH was used at a 1:10,000 dilution. After washing with PBS/0.05% Tween-20, the cells were incubated with fluorescently-labeled secondary antibodies (Anti-rabbit-Alexa Flour680, Invitrogen Cat#A21109; Anti-mouse-IRDye800CW, Rockland Inc. Cat#610-131-121) for 1 hour. Both secondary antibodies were used at a 1:1000 dilution. Cells were then washed and analyzed for fluorescence at both wavelengths using the Odyssey Infrared Imaging System (LI-COR Biosciences). Phosphorylated P90RSK(Ser380) signal was normalized to GAPDH signal.

human ERK-2 (Mitogen Activated Kinase 1), sequence (P28482 8-360): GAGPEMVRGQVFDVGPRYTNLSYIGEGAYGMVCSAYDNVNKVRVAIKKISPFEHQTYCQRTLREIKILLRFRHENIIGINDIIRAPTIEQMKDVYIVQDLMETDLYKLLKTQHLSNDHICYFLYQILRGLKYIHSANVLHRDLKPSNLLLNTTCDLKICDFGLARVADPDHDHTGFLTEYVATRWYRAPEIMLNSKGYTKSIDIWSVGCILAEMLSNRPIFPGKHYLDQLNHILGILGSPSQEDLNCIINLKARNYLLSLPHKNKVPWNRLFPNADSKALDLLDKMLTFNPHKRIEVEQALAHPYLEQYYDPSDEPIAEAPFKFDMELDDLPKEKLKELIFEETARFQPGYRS

CCOc1ccc(Cc2nnc3cc(-c4ccnc(Nc5ccnn5C)n4)ccn23)cn1 [Example 493, 4-(3-((6-ethoxypyridin-3-yl)methyl)-[1,2,4]triazolo[4,3-a]pyridin-7-yl)-N-(1-methyl-1H-pyrazol-5-yl)pyrimidin-2-amine]
IC50 [1]: 0.8 nM
IC50 [2]: 117 nM

COc1ccc(Cc2nnc3cc(-c4ccnc(Nc5ccnn5C)n4)ccn23)cc1F [Example 40, 4-(3-(3-fluoro-4-methoxybenzyl)-[1,2,4]triazolo[4,3-a]pyridin-7-yl)-N-(1-methyl-1H-pyrazol-5-yl)pyrimidin-2-amine]
IC50 [1]: 3.3 nM
IC50 [2]: 6.5 nM

Fc1c(-c2ccnc(NC3CCOCC3)c2)ccn2c(Cc3ccc(Cl)cc3)nnc12 [Example 112, 4-(3-(4-chlorobenzyl)-8-fluoro-[1,2,4]triazolo[4,3-a]pyridin-7-yl)-N-(tetrahydro-2H-pyran-4-yl)pyridin-2-amine]
IC50 [1]: 17 nM
IC50 [2]: 862 nM

CC[C@H](C)Cc1nnc2cc(-c3ccnc(Nc4ccnn4C)n3)ccn12 [Example 115, (S)—N-(1-methyl-1H-pyrazol-5-yl)-4-(3-(2-methylbutyl)-[1,2,4]triazolo[4,3-a]pyridin-7-yl)pyrimidin-2-amine]
IC50 [1]: 2.8 nM
IC50 [2]: 8.3 nM

CCC=Cc1nnc2cc(-c3ccnc(Nc4ccnn4C)n3)ccn12 (stereo in doubt) [Example 258, (E)-4-(3-(but-1-en-1-yl)-[1,2,4]triazolo[4,3-a]pyridin-7-yl)-N-(1-methyl-1H-pyrazol-5-yl)pyrimidin-2-amine]
IC50 [1]: 5.7 nM
IC50 [2]: 178 nM

CC(C)Cc1nnc2cc(-c3ccnc(Nc4ccnn4C)n3)ccn12 [Example 169, 4-(3-isobutyl-[1,2,4]triazolo[4,3-a]pyridin-7-yl)-N-(1-methyl-1H-pyrazol-5-yl)pyrimidin-2-amine]
IC50 [1]: 2.7 nM
IC50 [2]: 30 nM

CC(=O)NC(Cc1nnc2cc(-c3ccnc(Nc4ccnn4C)n3)ccn12)c1ccc(F)c(Cl)c1 (stereo not drawn) [Example 467, N-(1-(3-chloro-4-fluorophenyl)-2-(7-(2-((1-methyl-1H-pyrazol-5-yl)amino)pyrimidin-4-yl)-[1,2,4]triazolo[4,3-a]pyridin-3-yl)ethyl)acetamide]
IC50 [1]: 1.8 nM
IC50 [2]: 3350 nM

Cn1nccc1Nc1nccc(-c2ccn3c(CC(C)(O)C4CC4)nnc3c2)n1 (stereo not drawn) [Example 563, 2-cyclopropyl-1-(7-(2-((1-methyl-1H-pyrazol-5-yl)amino)pyrimidin-4-yl)-[1,2,4]triazolo[4,3-a]pyridin-3-yl)propan-2-ol]
IC50 [1]: 661 nM
IC50 [2]: > 5000 nM

Fc1ccccc1Cc1nnc2cc(-c3ccnc(NC4CCOCC4)n3)ccn12 [Example 398, 4-(3-(2-fluorobenzyl)-[1,2,4]triazolo[4,3-a]pyridin-7-yl)-N-(tetrahydro-2H-pyran-4-yl)pyrimidin-2-amine]
IC50 [1]: 3 nM
IC50 [2]: 15.5 nM

COc1ccc(Cc2nnc3cc(-c4ccnc(NC5CCOCC5)n4)ccn23)cn1 [Example 272, 4-(3-((6-methoxypyridin-3-yl)methyl)-[1,2,4]triazolo[4,3-a]pyridin-7-yl)-N-(tetrahydro-2H-pyran-4-yl)pyrimidin-2-amine]
IC50 [1]: 0.9 nM
IC50 [2]: 95.4 nM

Cn1nccc1Nc1nccc(-c2ccn3c(CC4CC5CCC4C5)nnc3c2)n1 (stereo not drawn) [Example 163, 4-(3-(bicyclo[2.2.1]heptan-2-ylmethyl)-[1,2,4]triazolo[4,3-a]pyridin-7-yl)-N-(1-methyl-1H-pyrazol-5-yl)pyrimidin-2-amine]
IC50 [1]: 2.4 nM
IC50 [2]: 20.7 nM

Cn1nccc1Nc1nccc(-c2ccn3cnnc3c2)n1 [Example 411, 4-([1,2,4]triazolo[4,3-a]pyridin-7-yl)-N-(1-methyl-1H-pyrazol-5-yl)pyrimidin-2-amine]
IC50 [1]: 11 nM
IC50 [2]: 607 nM

Cn1nccc1Nc1nccc(-c2ccn3c(CSC4CCCC4)nnc3c2)n1 [Example 307, 4-(3-((cyclopentylthio)methyl)-[1,2,4]triazolo[4,3-a]pyridin-7-yl)-N-(1-methyl-1H-pyrazol-5-yl)pyrimidin-2-amine]
IC50 [1]: 3.5 nM
IC50 [2]: 32.2 nM

Cn1nccc1Nc1cc(-c2ccn3c(CC4(C(F)(F)F)CC4)nnc3c2)ccn1 [Example 396, N-(1-methyl-1H-pyrazol-5-yl)-4-(3-((1-(trifluoromethyl)cyclopropyl)methyl)-[1,2,4]triazolo[4,3-a]pyridin-7-yl)pyridin-2-amine]
IC50 [1]: 3.3 nM
IC50 [2]: 35.4 nM

Cn1nccc1Nc1nccc(-c2ccn3c(CC45CC6CC(CC(C6)C4)C5)nnc3c2)n1 [Example 379, 4-(3-((1s,3s)-adamantan-1-ylmethyl)-[1,2,4]triazolo[4,3-a]pyridin-7-yl)-N-(1-methyl-1H-pyrazol-5-yl)pyrimidin-2-amine]
IC50 [1]: 2.4 nM
IC50 [2]: 24.7 nM

Cn1nccc1Nc1nccc(-c2ccn3c(Cc4cccc(-c5ccccc5)n4)nnc3c2)n1 [Example 275, N-(1-methyl-1H-pyrazol-5-yl)-4-(3-((6-phenylpyridin-2-yl)methyl)-[1,2,4]triazolo[4,3-a]pyridin-7-yl)pyrimidin-2-amine]
IC50 [1]: 1.5 nM
IC50 [2]: 20 nM

Cn1nccc1Nc1nccc(-c2ccn3c(Cc4ccc(F)cc4F)nnc3c2)n1 [Example 67, 4-(3-(2,4-difluorobenzyl)-[1,2,4]triazolo[4,3-a]pyridin-7-yl)-N-(1-methyl-1H-pyrazol-5-yl)pyrimidin-2-amine]
IC50 [1]: 2.8 nM
IC50 [2]: 7.5 nM

O=C(c1c(F)cccc1F)N1CCOC(c2nnc3cc(-c4ccnc(NC5CCOCC5)n4)ccn23)C1 (stereo not drawn) [Example 140, (2,6-difluorophenyl)(2-(7-(2-((tetrahydro-2H-pyran-4-yl)amino)pyrimidin-4-yl)-[1,2,4]triazolo[4,3-a]pyridin-3-yl)morpholino)methanone]
IC50 [1]: 7.5 nM
IC50 [2]: 486 nM

Cn1nccc1Nc1nccc(-c2ccn3c(CC(C)(C)C)nnc3c2)n1 [Example 150, N-(1-methyl-1H-pyrazol-5-yl)-4-(3-neopentyl-[1,2,4]triazolo[4,3-a]pyridin-7-yl)pyrimidin-2-amine]
IC50 [1]: 2.8 nM
IC50 [2]: 39.2 nM

Cn1nccc1Nc1cc(-c2ccn3c(CC(C)(C)C)nnc3c2)ccn1 [Example 279, N-(1-methyl-1H-pyrazol-5-yl)-4-(3-neopentyl-[1,2,4]triazolo[4,3-a]pyridin-7-yl)pyridin-2-amine]
IC50 [1]: 0.6 nM
IC50 [2]: 51.9 nM

Cc1ccnc(Cc2nnc3cc(-c4ccnc(Nc5ccnn5C)n4)ccn23)c1 [Example 276, N-(1-methyl-1H-pyrazol-5-yl)-4-(3-((4-methylpyridin-2-yl)methyl)-[1,2,4]triazolo[4,3-a]pyridin-7-yl)pyrimidin-2-amine]
IC50 [1]: 0.9 nM
IC50 [2]: 51.7 nM

Cn1nccc1Nc1cc(-c2ccn3c(CC4CC4)nnc3c2)ccn1 [Example 295, 4-(3-(cyclopropylmethyl)-[1,2,4]triazolo[4,3-a]pyridin-7-yl)-N-(1-methyl-1H-pyrazol-5-yl)pyridin-2-amine]
IC50 [1]: 0.4 nM
IC50 [2]: 117 nM

COc1ncc(F)cc1CN1CCCC(c2nnc3cc(-c4ccnc(NC5CCOCC5)n4)ccn23)C1 (stereo not drawn) [Example 132, 4-(3-(1-((5-fluoro-2-methoxypyridin-3-yl)methyl)piperidin-3-yl)-[1,2,4]triazolo[4,3-a]pyridin-7-yl)-N-(tetrahydro-2H-pyran-4-yl)pyrimidin-2-amine]
IC50 [1]: 197 nM
IC50 [2]: > 5000 nM

CN1CC(Oc2c(F)cccc2F)CC(c2nnc3cc(-c4ccnc(Nc5ccnn5C)n4)ccn23)C1 (stereo not drawn) [Example 113, 4-(3-(5-(2,6-difluorophenoxy)-1-methylpiperidin-3-yl)-[1,2,4]triazolo[4,3-a]pyridin-7-yl)-N-(1-methyl-1H-pyrazol-5-yl)pyrimidin-2-amine]
IC50 [1]: 3.4 nM
IC50 [2]: 38 nM
